The values that follow come from patent publication US5840893A, “Compounds for treating infectious diseases” (priority 1996, dated 1998).

As usually defined, the IC50 is the midpoint of a concentration-inhibition curve.

The subject of data set [1] is HIV-1. Kind of data set: Inhibition of HIV-1 replication in cultured macrophages (Table I). The data set is classed as cell-based. The following applies: Human immunodeficiency virus 1, Macrophage; 50% inhibition of viral growth, RT or p24, macrophages. The procedure:
A quantitative measurement of the activity of the compounds of the invention to block the replication of HIV-1 in non-dividing cells can be determined by culture of a macrophage-tropic strain of HIV-1 on peripheral blood-derived macrophages. The cells are cultured for 5-6 days prior to infection in a medium consisting of DMEM supplemented with 10% type A/B human serum and 200 U/ml Macrophage Colony Stimulating Factor, with half the medium changed after 3 days, to reach a density of about 10^6 cells per 5 ml well. A macrophage-tropic viral stock may be grown on these cells. The concentration of infectious particles in the stock is estimated by measurement of p24 antigen concentration.
To test the effect of compounds of the invention on HIV- 1 infection in the above-described culture system, the medium is removed and replaced with medium containing HIV-1 at a concentration of 1 ng of p24 (10^4 TCID50 /ml (TCID=tissue culture infectious doses)) and a known concentration of the compound of the invention (the inhibitor). After 24 hours, the cultures are washed to remove non-adherent virus and the culture is re-fed with medium containing the inhibitor at the desired concentration. The amount of replication of HIV-1 is estimated by an assay of the reverse transcriptase activity or by an assay of the concentration of p24 antigen in the culture medium every 2-3 days throughout the post-infection period. In a preferred embodiment the anti-HIV potency of the candidate drug is measured by comparison of the concentration of reverse transcriptase (RT) or of p24 antigen in the medium of the treated and control cultures at the time of the peak of these values in non-treated control cultures, that is about day 5 or 6 post-infection. Repetition at various levels of inhibitor allows for the calculation of the concentration of inhibitor that achieves 50% inhibition of viral growth, IC50. Table I discloses the IC50 of various inhibitors.

In data set [2] the test system is HIV-1ADA. Kind of data set: RT activity in supernatant of HIV-1ADA-infected monocytes. The data set is classed as cell-based, HIV-1ADA in primary human monocytes. As to the method: The cultures were treated with none or between 10^-12 and 10^-6M Compound No. 2 and, simultaneously with the beginning of treatment, the cells were exposed to the monocyte-tropic strain HIV-1ADA about 0.01 TCID50 /cell (1 ng p24/10^6 cells) for 2 hours. Samples were withdrawn at days 3, 6, 10, 14 and 17 after infection and assayed for reverse transcription activity.
FIGS. 2B and 2C show the effects of various concentrations of Compound No. 2 on the production of HIV-1 in monocyte cultures not supplemented with M-CSF. In these studies MOI, as determined by concentration of p24 antigen was; FIG. 2B (8 ng/10^6 cells) and FIG. 2C (0.8 ng/10^6 cells).
Primary human monocytes were obtained from peripheral blood by Ficoll-Hypaque centrifugation and adherence to plastic as described previously. Gartner S. P., et al., 1986, Science 233:215. Briefly, after Ficoll-Hypaque (Pharmacia) separation, PBMCs were washed 4 times with DMEM (the last wash was done at 800 rpm to remove platelets) and resuspended in monocyte culture medium [DMEM supplemented with 1 mM glutamine, 10% heat-inactivated human serum, 1% penicillin+streptomycin mixture (Sigma)] at a density of 6×10^6 cells/ml. Cells were seeded in 24-well plates (1 ml per well) and incubated for 2 h at 37° C., 5% CO2. Following incubation, cells were washed 3 times with DMEM to remove non-adherent cells and incubation was continued in monocyte culture medium supplemented with 250 U/ml human M-CSF (Sigma). Cells were allowed to mature for 7 days prior to infection with the monocyte-tropic strain, HIV-1ADA. Nuovo, G. J., et al., 1992, Diagn. Mol. Pathol. 1:98. Two hours after infection, cells were washed with medium and cultured in RPMI supplemented with 10% human serum. […]
Macrophage-tropic strain HIV-1ADA was amplified in primary human monocytes and concentrated to produce stock with TCID50 of about 10^5 /ml. The concentration of HIV-1 was determined by immunoassay of viral p24, concentration; using a conversion factor of […].
For the reverse transcriptase (RT) assay, 10 μl of culture supernatant was added to 40 μl of reaction mixture (final composition was 50 mM Tris-HCl, pH 7.8; 20 mM KCl; 5 mM MgCl2; 1 mM DTT; 0.1% Triton X-100; 0.2 OD/ml polyA; 0.2 OD/ml oligo(dT)12-18; and 40 μCi/ml ^3 H-dTTP (76 Ci/mmol, DuPont) and incubated 2 hr at 37° C. 5 μl of the reaction mixture was then spotted onto the DE 81 (Whatman) paper. Paper was air dried and washed 5 times with 5% Na2 HPO4, followed by rinsing with distilled water. After air drying, paper was put on a Flexi Filter plate (Packard), covered with scintillation fluid and counted in a Top Count Microplate Counter (Packard). Results are expressed as counts per minute in 1 ml of supernatant (cpm/ml).

In data set [3] the target is T1, reverse transcriptase (HIV-1 M:B_HXB2R, UniProt P04585).
T1 construct: infection experiments used HIV-1 ADA virus supernatant
The data set is described as follows: Inhibition of reverse transcriptase. The data set is classed as biochemical. The following applies: data not shown.

The conditions of data set [4]: Table IV; measured in a 25 gr mouse.
Procedure: Standard addition curves for each test compound were constructed by adding increased amounts of drug to mouse or human A^+ plasma (Long Island Blood Services; Melville, N.Y.). […] The eluted sample was reduced to dryness in a rotary evaporator and resuspended in 1.0 ml Buffer A.
Female ND4 Swiss Webster mice (21-24 g) were obtained from Harlan Sprague Dawley (Indianapolis, Ind.) and randomly placed in groups of five in cages with free access to food and water. […] The other CNI compounds were administered intraperitoneally or by oral gavage as a solution in water titrated with sufficient HCl to dissolve the drug. At various time points, ranging from 5 min to 4 days, a single group of animals was euthanized by carbon dioxide inhalation and bled by cardiac puncture using heparin as an anticoagulant. The blood from the five mice in the group was pooled and centrifuged at 14000×g for 10 min. The volume of plasma was measured, and equal volume of Buffer A added, and the mixture extracted and analyzed as described above, except that the dried eluates were resuspended in 200 μl Buffer A and 100 μl was injected onto the high performance liquid chromatography (HPLC) system.
The area under the plasma concentration-time curve (AUC) was determined, and bioavailability was measured as AUCoral /AUCi.p.. […] The volume of distribution (VD) was calculated as dose/B, and the total clearance rate (Cltot) calculated as β*VD. Cmax and tmax are the maximal plasma concentration and time of this measurement, respectively.

In the case of `CC(=O)c1cc(Nc2cc(C)[n+](C)c(N)n2)cc(C(C)=O)c1.[I-]` [Compound No. 2, 2-amino-4-(3,5-diacetylphenyl)amino-1,6-dimethylpyrimidinium iodide], the IC50 in data set [1] was 1 nM; in data set [2] (Homo sapiens, Monocyte, FIG. 2A, M-CSF, 1 ng p24/10^6 cells), 0.1 to 1 nM; in data set [2] (Homo sapiens, Monocyte, FIG. 2B, without M-CSF, 8 ng p24/10^6 cells), approximately 10 nM; in data set [2] (Homo sapiens, Monocyte, FIG. 2C, without M-CSF, 0.8 ng p24/10^6 cells), less than 1 nM; in data set [2] (Human immunodeficiency virus 1, Monocyte, FIG. 2, HIV-1 replication in monocytes, estimated), 0.1 to 1 nM. Also, the “inhibition of reverse transcriptase” value in data set [3] is “does not inhibit reverse transcriptase”. Also, the Clearance in data set [4] was found to be 35.35 mL/min.
